{"source": "patent US7214708B2", "about": "“Synthetic discodermolide analogs” (priority 2004, dated 2007)", "key": {"[1]": {"test_system": "A549", "test": "inhibition of proliferation of tumor cell line A549", "type": "cell-based", "conditions": "A549 human lung cancer cell line; some results are the average of multiple runs", "experimental": "(§1) The biological activities of compounds I were evaluated by measuring their inhibitory effect on the proliferation of various tumor cell lines. MCF-7, A549, SKOV-3, and CCRF-CEM are human breast cancer, lung cancer, ovary cancer, and leukemia cell lines, respectively. HL-60/MX2 is a leukemia cell line resistant to mitoxantrone. A549 t12 is an A549 subline resistant to paclitaxel. CCRF-CEM/PTX, CCRF-CEM/VBL, and CCRF-CEM/VP16 are CCRF-CEM sublines resistant to paclitaxel, vinblastine, and VP-16 (etoposide), respectively. NCI/ADR (also referred to as NCI/ADR-Res) is a multi-drug resistant human breast cancer cell line.\n(§2) The biological activity of compound II-A was evaluated by measuring its inhibitory effect on the proliferation of various tumor cell lines. (The characteristics of the various cell lines employed was previously described hereinabove.)\n(§3) The biological activity of compounds III was evaluated by measuring their inhibitory effect on the proliferation of various tumor cell lines. The characteristics of the cells lines used has been described hereinabove.\n(§4) The biological activity of compounds IV was evaluated by measuring their inhibitory effect on the proliferation of various tumor cell lines. The characteristics of the cell lines used has been discussed hereinabove."}, "[2]": {"test_system": "A549 t12", "test": "inhibition of proliferation of tumor cell line A549 t12", "type": "cell-based, human", "conditions": "A549 t12, A549 subline resistant to paclitaxel, some results are the average of multiple runs", "experimental": "as §1, §2, §4"}, "[3]": {"test_system": "NCI/ADR", "test": "inhibition of proliferation of tumor cell line NCI/ADR", "type": "cell-based", "conditions": "NCI/ADR (NCI/ADR-Res) multi-drug resistant human breast cancer cell line; some results are the average of multiple runs", "experimental": "as §1, §2, §3, §4"}, "[4]": {"test_system": "MCF-7", "test": "inhibition of proliferation of tumor cell line MCF-7", "type": "cell-based", "conditions": "MCF-7 human breast cancer cell line, some results are the average of multiple runs", "experimental": "as §1, §2, §3, §4"}, "[5]": {"test_system": "CCFR-CEM/VP16", "test": "inhibition of proliferation of tumor cell line CCRF-CEM/VP16", "type": "cell-based, human", "conditions": "CCRF-CEM subline resistant to VP-16 (etoposide), some results are the average of multiple runs", "experimental": "as §1, §2, §4"}, "[6]": {"test_system": "SKOV-3", "test": "inhibition of proliferation of tumor cell line SKOV-3", "type": "cell-based", "conditions": "SKOV-3 human ovary cancer cell line, some results are the average of multiple runs", "experimental": "as §1, §2, §3"}, "[7]": {"test_system": "CCRF-CEM", "test": "inhibition of proliferation of tumor cell line CCRF-CEM", "type": "cell-based", "conditions": "CCRF-CEM human leukemia cell line; some results are the average of multiple runs", "experimental": "as §1, §2, §4"}, "[8]": {"test_system": "HL-60/MX2", "test": "inhibition of proliferation of tumor cell line HL-60/MX2", "type": "cell-based", "conditions": "HL-60/MX2 leukemia cell line resistant to mitoxantrone, some results are the average of multiple runs", "experimental": "as §1, §2, §4"}, "[9]": {"test_system": "CCRF-CEM/VBL", "test": "inhibition of proliferation of tumor cell line CCRF-CEM/VBL", "type": "cell-based, human", "conditions": "CCRF-CEM subline resistant to vinblastine, some results are the average of multiple runs", "experimental": "as §1, §2, §4"}, "[10]": {"test_system": "CCRF-CEM/PTX", "test": "inhibition of proliferation of tumor cell line CCRF-CEM/PTX", "type": "cell-based, human", "conditions": "CCRF-CEM subline resistant to paclitaxel, some results are the average of multiple runs", "experimental": "as §1, §2, §4"}}}
{"compound": "C=C/C=C\\[C@H](C)[C@H](OC(N)=O)[C@@H](C)[C@H](O)[C@@H](C)C/C(C)=C\\[C@H](C)[C@@H](O)[C@@H](C)/C=C\\[C@H](C[C@@H]1OC(=O)[C@H](C)[C@@H](O)[C@H]1C)OCOCCOC", "note": "[I-B]", "values": [{"measurement": "IC50", "setting": "[1]", "result": 6.7, "unit": "nM"}, {"measurement": "IC50", "setting": "[2]; Homo sapiens", "result": 5.8, "unit": "nM"}, {"measurement": "IC50", "setting": "[3]", "result": 140, "unit": "nM"}, {"measurement": "IC50", "setting": "[4]; MCF7", "result": 5.5, "unit": "nM"}]}
{"compound": "C=C/C=C\\[C@H](C)[C@H](OC(N)=O)[C@@H](C)[C@H](O)[C@@H](C)C/C(C)=C\\[C@H](C)[C@@H](O)[C@@H](C)/C=C(/C)[C@@H](O)C[C@@H]1OC(=O)[C@H](C)[C@@H](O)[C@H]1C", "note": "[II-A, 8-methyldiscodermolide]", "values": [{"measurement": "IC50", "setting": "[1]", "result": 12, "unit": "nM"}, {"measurement": "IC50", "setting": "[2]; Homo sapiens", "result": 31, "unit": "nM"}, {"measurement": "IC50", "setting": "[5]; Homo sapiens", "result": 9, "unit": "nM"}, {"measurement": "IC50", "setting": "[6]; SK-OV-3", "result": 29, "unit": "nM"}, {"measurement": "IC50", "setting": "[7]", "result": 5.6, "unit": "nM"}, {"measurement": "IC50", "setting": "[8]; Homo sapiens, HL60/MX2", "result": 11, "unit": "nM"}, {"measurement": "IC50", "setting": "[3]", "result": 610, "unit": "nM"}, {"measurement": "IC50", "setting": "[9]; Homo sapiens", "result": 152, "unit": "nM"}, {"measurement": "IC50", "setting": "[4]; MCF7", "result": 7.7, "unit": "nM"}, {"measurement": "IC50", "setting": "[10]; Homo sapiens", "result": 42.3, "unit": "nM"}]}
{"compound": "C=C/C=C\\[C@H](C)[C@H](OC(N)=O)[C@@H](C)[C@H](O)[C@@H](C)C/C(C)=C\\[C@H](C)[C@@H](O)[C@@H](C)/C=C\\[C@@H](O)C[C@H]1CCC(=O)O1", "note": "[III-A]", "values": [{"measurement": "IC50", "setting": "[1]", "result": 4.9, "unit": "nM"}, {"measurement": "IC50", "setting": "[6]; SK-OV-3", "result": 14, "unit": "nM"}, {"measurement": "IC50", "setting": "[3]", "result": 350, "unit": "nM"}, {"measurement": "IC50", "setting": "[4]; MCF7", "result": 2.9, "unit": "nM"}]}
{"compound": "CC/C=C\\[C@H](C)[C@H](OC(N)=O)[C@@H](C)[C@H](O)[C@@H](C)C/C(C)=C\\[C@H](C)[C@@H](O)[C@@H](C)/C=C\\[C@@H](O)C[C@H]1CCC(=O)O1", "note": "[III-B]", "values": [{"measurement": "IC50", "setting": "[1]", "result": 46, "unit": "nM"}, {"measurement": "IC50", "setting": "[6]; SK-OV-3", "result": 15, "unit": "nM"}, {"measurement": "IC50", "setting": "[3]", "result": 730, "unit": "nM"}, {"measurement": "IC50", "setting": "[4]; MCF7", "result": 6.4, "unit": "nM"}]}
{"compound": "CC/C=C\\[C@H](C)[C@H](OC(N)=O)[C@@H](C)[C@H](O)[C@@H](C)C/C(C)=C\\[C@H](C)[C@@H](O)[C@@H](C)/C=C\\[C@@H](O)C[C@@H]1OC(=O)[C@H](C)[C@@H](OC)[C@H]1C", "note": "[IV-A]", "values": [{"measurement": "IC50", "setting": "[1]", "result": 11, "unit": "nM"}, {"measurement": "IC50", "setting": "[2]; Homo sapiens", "result": 50, "unit": "nM"}, {"measurement": "IC50", "setting": "[5]; Homo sapiens", "result": 12, "unit": "nM"}, {"measurement": "IC50", "setting": "[7]", "result": 8.6, "unit": "nM"}, {"measurement": "IC50", "setting": "[8]; Homo sapiens, HL60/MX2", "result": 12, "unit": "nM"}, {"measurement": "IC50", "setting": "[3]", "result": 140, "unit": "nM"}, {"measurement": "IC50", "setting": "[9]; Homo sapiens", "result": 209, "unit": "nM"}, {"measurement": "IC50", "setting": "[4]; MCF7", "result": 5.8, "unit": "nM"}, {"measurement": "IC50", "setting": "[10]; Homo sapiens", "result": 65, "unit": "nM"}]}
{"compound": "CC/C=C\\[C@H](C)[C@H](OC(N)=O)[C@@H](C)[C@H](O)[C@@H](C)C/C(C)=C\\[C@H](C)[C@@H](O)[C@@H](C)/C=C\\[C@@H](O)C[C@@H]1OC(=O)[C@H](C)C[C@H]1C", "note": "[IV-B]", "values": [{"measurement": "IC50", "setting": "[1]", "result": 6.5, "unit": "nM"}, {"measurement": "IC50", "setting": "[2]; Homo sapiens", "result": 12, "unit": "nM"}, {"measurement": "IC50", "setting": "[5]; Homo sapiens", "result": 8.4, "unit": "nM"}, {"measurement": "IC50", "setting": "[7]", "result": 4.4, "unit": "nM"}, {"measurement": "IC50", "setting": "[8]; Homo sapiens, HL60/MX2", "result": 4.1, "unit": "nM"}, {"measurement": "IC50", "setting": "[3]", "result": 250, "unit": "nM"}, {"measurement": "IC50", "setting": "[9]; Homo sapiens", "result": 416, "unit": "nM"}, {"measurement": "IC50", "setting": "[4]; MCF7", "result": 3.8, "unit": "nM"}, {"measurement": "IC50", "setting": "[10]; Homo sapiens", "result": 79, "unit": "nM"}]}
{"compound": "(+)-Discodermolide [reference compound]", "values": [{"measurement": "IC50", "setting": "[1]", "result": 24.4, "unit": "nM"}, {"measurement": "IC50", "setting": "[2]", "result": 26.7, "unit": "nM"}, {"measurement": "IC50", "setting": "[5]", "result": 53, "unit": "nM"}, {"measurement": "IC50", "setting": "[6]", "result": 31.7, "unit": "nM"}, {"measurement": "IC50", "setting": "[7]", "result": 14.8, "unit": "nM"}, {"measurement": "IC50", "setting": "[8]", "result": 150, "unit": "nM"}, {"measurement": "IC50", "setting": "[3]", "result": 247, "unit": "nM"}, {"measurement": "IC50", "setting": "[9]", "result": 158, "unit": "nM"}, {"measurement": "IC50", "setting": "[4]", "result": 14.1, "unit": "nM"}, {"measurement": "IC50", "setting": "[10]", "result": 92.8, "unit": "nM"}]}
